In patent US20260274892A1, “MACROCYCLIC BROAD SPECTRUM ANTIBIOTICS” (RQx Pharmaceuticals, Inc., priority 2017, published 2026):

test system: Escherichia coli ATCC 25922; test: Minimum inhibitory concentration (MIC), CLSI broth micro-dilution, E. coli; type: cell-based; conditions: Escherichia coli, ATCC25922, 22 h, Table 6, cation adjusted Mueller Hinton Broth + 0.002% Tween-80, 35° C.
Method in brief: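 Colonies grown 20 h at 35° C on Trypticase Soy agar (MRSA) or Luria agar (E. coli) were suspended in cation-adjusted Mueller Hinton broth with 0.002% Tween-80. Suspensions were added at OD600 0.0005 to 10-point twofold compound dilutions, then incubated 22 h at 35° C.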

Question: Which MIC does the source give for `Cc1nc(-c2ccc(OC3CCCCC3)cc2)nc(N)c1C(=O)N[C@@H](CCN)C(=O)N(C)[C@@H]1C(=O)N[C@@H](C)C(=O)N[C@H](C(=O)NCC#N)Cc2ccc(OCCN)c(c2)-c2cc1ccc2OCCN` (racemic) [Compound 547, rac-(8S,11S,14S)-3,18-bis(2-aminoethoxy)-N-(cyanomethyl)-11-methyl-14-[methyl-[rac-(2S)-4-amino-2-[[4-amino-2-[4-(cyclohexoxy)phenyl]-6-methyl-pyrimidine-5-carbonyl]amino]butanoyl]amino]-10,13-dioxo-9,12-diazatricyclo[13.3.1.12,6]icosa-1(18),2(20),3,5,15(19),16-hexaene-8-carboxamide] here?
Answer: Its MIC is 0.094 µM.

Question: `Cc1nc(-c2cnc(OCCC(C)(C)C)nc2)nc(C)c1C(=O)N[C@@H](CCN)C(=O)N(C)[C@@H]1C(=O)N[C@@H](C)C(=O)N[C@H](C(=O)NCC#N)Cc2ccc(OCCN)c(c2)-c2cc1ccc2OCCN` (racemic) [Compound 550, rac-(8S,11S,14S)-3,18-bis(2-aminoethoxy)-N-(cyanomethyl)-11-methyl-14-[methyl-[rac-(2S)-4-amino-2-[[2-[2-(3,3-dimethylbutoxy)pyrimidin-5-yl]-4,6-dimethyl-pyrimidine-5-carbonyl]amino]butanoyl]amino]-10,13-dioxo-9,12-diazatricyclo[13.3.1.12,6]icosa-1(18),2(20),3,5,15(19),16-hexaene-8-carboxamide] was tested. Which MIC did it give?
Answer: Its MIC is 2 µM.

Question: For `Cc1nc(-c2ccc(C(C)(C)C)cc2)cc(OCC(N)=O)c1C(=O)N[C@@H](CCN)C(=O)N(C)[C@@H]1C(=O)N[C@@H](C)C(=O)N[C@H](C(=O)NCC#N)Cc2ccc(OCCN)c(c2)-c2cc1ccc2OCCN` (racemic) [Compound 551, rac-(8S,11S,14S)-3,18-bis(2-aminoethoxy)-N-(cyanomethyl)-11-methyl-14-[methyl-[rac-(2S)-4-amino-2-[[4-(2-amino-2-oxo-ethoxy)-6-(4-tert-butylphenyl)-2-methyl-pyridine-3-carbonyl]amino]butanoyl]amino]-10,13-dioxo-9,12-diazatricyclo[13.3.1.12,6]icosa-1(18),2(20),3,5,15(19),16-hexaene-8-carboxamide], which MIC is on record?
Answer: Its MIC is 1 µM.

Question: How did the MIC turn out when `C[C@@H]1NC(=O)[C@@H](N(C)C(=O)[C@H](CCN)NC(=O)c2c(N)cc(-c3ccc(C(C)(C)C)cc3)nc2Cl)c2ccc(OCCN)c(c2)-c2cc(ccc2OCCN)C[C@@H](C(=O)NCC#N)NC1=O` (racemic) [Compound 554, rac-(8S,11S,14S)-3,18-bis(2-aminoethoxy)-N-(cyanomethyl)-11-methyl-14-[methyl-[rac-(2S)-4-amino-2-[[4-amino-6-(4-tert-butylphenyl)-2-chloro-pyridine-3-carbonyl]amino]butanoyl]amino]-10,13-dioxo-9,12-diazatricyclo[13.3.1.12,6]icosa-1(18),2(20),3,5,15(19),16-hexaene-8-carboxamide] was run?
Answer: Its MIC is 0.094 µM.

Question: With `Cc1nc(-c2ccc(N3[C@H](C)CCC[C@@H]3C)cc2)nc(C)c1C(=O)N[C@@H](CCN)C(=O)N(C)[C@@H]1C(=O)N[C@@H](C)C(=O)N[C@H](C(=O)NCC#N)Cc2ccc(OCCN)c(c2)-c2cc1ccc2OCCN` (racemic) [Compound 555, rac-(8S,11S,14S)-3,18-bis(2-aminoethoxy)-N-(cyanomethyl)-11-methyl-14-[methyl-[rac-(2S)-4-amino-2-[[4,6-dimethyl-2-[4-[rac-(2R,6S)-2,6-dimethyl-1-piperidyl]phenyl]pyrimidine-5-carbonyl]amino]butanoyl]amino]-10,13-dioxo-9,12-diazatricyclo[13.3.1.12,6]icosa-1(18),2(20),3,5,15(19),16-hexaene-8-carboxamide] as the molecule, how does the MIC read?
Answer: The MIC was 0.19 µM.

Question: With `Cc1nc(-c2ccc(C(C)(C)C)cc2)cc(N)c1C(=O)N[C@@H](CCN)C(=O)N(C)[C@@H]1C(=O)N[C@@H](C)C(=O)N[C@H](C(=O)NCC#N)Cc2ccc(OCCN)c(c2)-c2cc1ccc2O` (racemic) [Compound 557, rac-(8S,11S,14S)-3-(2-aminoethoxy)-N-(cyanomethyl)-18-hydroxy-11-methyl-14-[methyl-[rac-(2S)-4-amino-2-[[4-amino-6-(4-tert-butylphenyl)-2-methyl-pyridine-3-carbonyl]amino]butanoyl]amino]-10,13-dioxo-9,12-diazatricyclo[13.3.1.12,6]icosa-1(18),2(20),3,5,15(19),16-hexaene-8-carboxamide] as the molecule, how does the MIC read?
Answer: The MIC was 0.25 µM.

same assay, conditions: Escherichia coli, ATCC25922, 22 h, Table 7, cation adjusted Mueller Hinton Broth + 0.002% Tween-80, 35° C.

Question: `Cc1nc(-c2ccc(C(C)(C)C)cc2)nc(C)c1C(=O)N[C@@H](CCN)C(=O)N(C)[C@@H]1C(=O)N[C@@H](C)C(=O)N[C@H](C(=O)NCC#N)Cc2cc(OCCN)c(O)c(c2)-c2cc1ccc2O` (racemic) [Compound 561, (4S,7S,10S)-10-((S)-4-amino-2-(2-(4-(tert-butyl)phenyl)-4,6-dimethylpyrimidine-5-carboxamido)-N-methylbutanamido)-25-(2-aminoethoxy)-N-(cyanomethyl)-16,26-dihydroxy-7-methyl-6,9-dioxo-5,8-diaza-1,2(1,3)-dibenzenacyclodecaphane-4-carboxamide] was tested. Which MIC did it give?
Answer: Its MIC is 0.75 µM.

Question: Which MIC does the source give for `Cc1nc(-c2ccc(OC3CCCCC3)cc2)cc(N)c1C(=O)N[C@@H](CCN)C(=O)N(C)[C@@H]1C(=O)N[C@@H](C)C(=O)N[C@H](C(=O)NCC#N)Cc2ccc(OCCCN)c(c2)-c2cc1ccc2OCCCN` (racemic) [Compound 565, rac-(8S,11S,14S)-3,18-bis(3-aminopropoxy)-N-(cyanomethyl)-11-methyl-14-[methyl-[rac-(2S)-4-amino-2-[[4-amino-6-[4-(cyclohexoxy)phenyl]-2-methyl-pyridine-3-carbonyl]amino]butanoyl]amino]-10,13-dioxo-9,12-diazatricyclo[13.3.1.12,6]icosa-1(18),2(20),3,5,15(19),16-hexaene-8-carboxamide] here?
Answer: Its MIC is 0.13 µM.

Question: How did the MIC turn out when `Cc1nc(-c2ccc(OC3CCCCC3)cc2)nc(C)c1C(=O)N[C@@H](CCN)C(=O)N(C)[C@@H]1C(=O)N[C@@H](C)C(=O)N[C@H](C(=O)NCC#N)Cc2ccc(OC[C@H](O)CN)c(c2)-c2cc1ccc2OC[C@H](O)CN` (racemic) [Compound 568, rac-(8S,11S,14S)-N-(cyanomethyl)-11-methyl-14-[methyl-[rac-(2S)-4-amino-2-[[2-[4-(cyclohexoxy)phenyl]-4,6-dimethyl-pyrimidine-5-carbonyl]amino]butanoyl]amino]-10,13-dioxo-3,18-bis[rac-(2R)-3-amino-2-hydroxy-propoxy]-9,12-diazatricyclo[13.3.1.12,6]icosa-1(18),2(20),3,5,15(19),16-hexaene-8-carboxamide] was run?
Answer: Its MIC is 0.063 µM.

Question: With `Cc1nc(-c2ccc(C(C)(C)C)cc2)nc(C)c1C(=O)N[C@@H](CCN)C(=O)N(C)[C@@H]1C(=O)N[C@@H](C)C(=O)N[C@H](C(=O)NCC#N)Cc2ccc(OCCN)c(c2)-c2cc1ccc2OC[C@H](O)CN` (racemic) [Compound 571, rac-(8S,11S,14S)-3-(2-aminoethoxy)-N-(cyanomethyl)-11-methyl-14-[methyl-[rac-(2S)-4-amino-2-[[2-(4-tert-butylphenyl)-4,6-dimethyl-pyrimidine-5-carbonyl]amino]butanoyl]amino]-10,13-dioxo-18-[rac-(2R)-3-amino-2-hydroxy-propoxy]-9,12-diazatricyclo[13.3.1.12,6]icosa-1(18),2(20),3,5,15(19),16-hexaene-8-carboxamide] as the molecule, how does the MIC read?
Answer: Its MIC is 0.094 µM.

Question: With `Cc1nc(-c2ccc(C(C)(C)C)cc2)nc(C)c1C(=O)N[C@@H](CNS(N)(=O)=O)C(=O)N(C)[C@@H]1C(=O)N[C@@H](C)C(=O)N[C@H](C(=O)NCC#N)Cc2ccc(OCCN)c(c2)-c2cc1ccc2OCCN` (racemic) [Compound 572, rac-(8S,11S,14S)-3,18-bis(2-aminoethoxy)-N-(cyanomethyl)-11-methyl-14-[methyl-[rac-(2S)-2-[[2-(4-tert-butylphenyl)-4,6-dimethyl-pyrimidine-5-carbonyl]amino]-3-(sulfamoylamino)propanoyl]amino]-10,13-dioxo-9,12-diazatricyclo[13.3.1.12,6]icosa-1(18),2(20),3,5,15(19),16-hexaene-8-carboxamide] as the molecule, how does the MIC read?
Answer: The MIC was 0.28 µM.

same assay, conditions: Escherichia coli, ATCC25922, Table 7, cation adjusted Mueller Hinton Broth + 0.002% Tween-80, 35° C., 22 hours

Question: With `Cc1nc(-c2ccc(C(C)(C)C)cc2)nc(C)c1C(=O)N[C@@H](CCN)C(=O)N(C)[C@@H]1C(=O)N[C@@H](C)C(=O)N[C@H](C(=O)NCC#N)Cc2cc(OCCN)c(O)c(c2)-c2cc1ccc2OCCN` (racemic) [Compound 562, (4S,7S,10S)-10-((S)-4-amino-2-(2-(4-(tert-butyl)phenyl)-4,6-dimethylpyrimidine-5-carboxamido)-N-methylbutanamido)-16,25-bis(2-aminoethoxy)-N-(cyanomethyl)-26-hydroxy-7-methyl-6,9-dioxo-5,8-diaza-1,2(1,3)-dibenzenacyclodecaphane-4-carboxamide] as the molecule, how does the MIC read?
Answer: Its MIC is 0.094 µM.

Question: `Cc1nc(-c2ccc(C(C)(C)C)cc2)nc(C)c1C(=O)N[C@@H](CCN)C(=O)N(C)[C@@H]1C(=O)N[C@@H](C)C(=O)N[C@H](C(=O)O)Cc2cc(OCCN)c(O)c(c2)-c2cc1ccc2OCCN` (racemic) [Compound 563, rac-(8S,11S,14S)-4,18-bis(2-aminoethoxy)-3-hydroxy-11-methyl-14-[methyl-[rac-(2S)-4-amino-2-[[2-(4-tert-butylphenyl)-4,6-dimethyl-pyrimidine-5-carbonyl]amino]butanoyl]amino]-10,13-dioxo-9,12-diazatricyclo [13.3.1.12,6]icosa-1(18),2,4,6(20),15(19), 16-hexaene-8-carboxylic acid] was tested. Which MIC did it give?
Answer: The MIC was 0.25 µM.

Question: Which MIC does the source give for `Cc1nc(-c2ccc(OC(C)C)cc2)nc(C)c1C(=O)N[C@@H](CCN)C(=O)N(C)[C@@H]1C(=O)N[C@@H](C)C(=O)N[C@H](C(=O)NCC#N)Cc2ccc(OC[C@H](O)CN)c(c2)-c2cc1ccc2OC[C@H](O)CN` (racemic) [Compound 569, rac-(8S,11S,14S)-N-(cyanomethyl)-11-methyl-14-[methyl-[rac-(2S)-4-amino-2-[[2-(4-isopropoxyphenyl)-4,6-dimethyl-pyrimidine-5-carbonyl]amino]butanoyl]amino]-10,13-dioxo-3,18-bis[rac-(2R)-3-amino-2-hydroxy-propoxy]-9,12-diazatricyclo[13.3.1.12,6]icosa-1(18),2(20),3,5,15(19),16-hexaene-8-carboxamide] here?
Answer: The MIC was 0.5 µM.
